Test results taken from US20030180952A1, “Plant regeneration” (Sugar Research & Development Corporation, priority 2000, published 2003).

Key:
[1] = test system: leaf base sections of sorghum variety New Nugget; test: Somatic embryogenesis and shoot production in leaf base sections; assay type: cell-based, Sorghum bicolor L.; settings: for regeneration with other hormone combinations: sorghum
From the text: Table 26: Effect of different levels of cholorophenoxyacetic acid (CPA) on somatic embryogenesis and shoot production in 1.0-2.0 mm thick leaf base sections of sorghum (Sorghum bicolor L.) variety New Nugget after 8 weeks of culture. Five to six replicates, each with 10 explants placed in “top down” orientation, were maintained for each treatment. All cultures received 16 hr light every day.
Table 27: Effect of different levels of cholorophenoxyacetic acid (CPA) and 6-benzyladenine (BA) on somatic embryogenesis and shoot production in 1.0-2.0 mm thick leaf base sections of sorghum (Sorghum bicolor l L.) variety New Nugget after 8 weeks of culture. Five to six replicates, each with 10 explants placed in “top down” orientation, were maintained for each treatment. All cultures received 16 hr light every day.
Young developing leaf sheaths (the innermost 3-4 whorls at the shoot tip) were used as the explant. Explants were preferably 1.0-2.0 mm thick transverse sections taken from the whorls. MS nutrient medium containing 3% sucrose and 7.5 g/L Davis J3 agar was used as the basal medium for all experiments. MS-based medium with several plant growth regulators was tested as a micropropagation medium.

[2] = test system: leaf explants of sugarcane cultivar Q165; test: Shoot regeneration in leaf explants on MS medium with cytokinin and auxin; assay type: cell-based; settings: at any given concentration of NAA; Tables 7, 8 and 10
Method: (§1) Top portions (about 30 cm) of shoots were cut and all leaves except the innermost 3-4 whorls were carefully removed under aseptic conditions. TS explants measuring about 1.0-2.0 mm or 5.0-6.0 mm in thickness were prepared by serial transverse sectioning of the lowermost 3-4 cm portion (just above the apical meristem) of the leaf spindle using a sharp surgical blade under sterile conditions.
(§2) Murashige & Skoog (MS) nutrient formulation supplemented with 30 g/L sucrose and 7.5 g/L Difco agar were used as the basal culture medium. Basal medium was enriched with different concentrations and combinations of (i) a cytokinin: 6-benzylaminopourine (BA) or kinetin (KIN); (ii) an auxin: α-napthaleneacetic acid (NAA); and (iii) anti-oxidants: citric acid (CA), ascorbic acid (AA), or dithiothreitol (DTT); depending on the experimental objective. The pH of the medium was adjusted to 5.7 before autoclaving for 20 minutes at 120° C. […]
Also, the concentrations of BA and NAA were varied in order to determine their influence upon shoot generation. […] The percentage of explants producing shoots were scored, as were the number of shoots produced per explant. […]

[3] = test system: leaf explants of sugarcane cultivar 91N406; test: Direct shoot regeneration in leaf explants on MS medium with BA and NAA; assay type: cell-based; settings: 91N406 explants; BA 4 μM
From the text: Table 12: Direct shoot regeneration in leaf explants (1-2 mm thick) of sugarcane cultivar 90N876 cultured on MS medium supplemented with 6-benzyladenine (BA) and α-napthaleneacetic acid (NAA) for 8 weeks. Thirty replicates, each with 10 explants cultured in top down orientation, were maintained for each treatment. Table 13: Direct shoot regeneration in leaf explants (1-2 mm thick) of sugarcane cultivar 91N406 cultured on MS medium supplemented with 6-benzyladenie (BA) and α-napthaleneacetic acid (NAA) for 8 weeks. Five replicates, each with 10 explants cultured in top down orientation were maintained for each treatment.
as §1
Murashige & Skoog (MS) nutrient formulation supplemented with 30 g/L sucrose and 7.5 g/L Difco agar were used as the basal culture medium. […]

[4] = test system: inflorescence explants of sugarcane Q152; test: Regeneration from inflorescence explants; assay type: cell-based; settings: Table 18 (b) ˜8 mm pieces of main floral axis placed laterally
Method: Table 18: Comparison of regeneration efficiency for different sugarcane explants. Explants were (a) 2-3 mm sections of main floral axis of inflorescence; (b) ˜8 mm sections of main floral axis placed laterally on the culture medium; (c) immature floral tissues dissociated from floral axis; and (d) whole 2-3 mm sections of inflorescence oriented “top down”. B4N10=4 μM BA+10 μM NAA; B4N40=4 μM BA+40 μM NAA; B4N60=4 μM BA+60 μM NAA; 2,4D14=14 μM 2,4,D. “Top down” orientation is as previously described. Shoot frequency legend: *1-2 shoots per explant; **3-10 shoots per explant; ***greater than […] shoots per explant.
Young bolting inflorescence “stalk” tissue enveloped in developing leaves (floral and leaf components) was harvested from above the apical meristem of Q152 or Q165 sugarcane plants. Transverse sections were made to produce 2-3 mm thin sections of the tissue.
as §2, with “objective.” for “objective. The pH of the medium was adjusted to 5.7 before autoclaving for 20 minutes at 120° C.”

[5] = test system: leaf whorl explants of sugarcane cultivar Q165; test: Somatic embryogenesis / shoot regeneration in leaf whorl explants; assay type: cell-based; settings: sugarcane leaf section cultures
Method: Table 19: Morphogenic response of leaf whorl explants (1.0-2.0 mm thick) of sugarcane cultivar Q165 after 8 weeks of culture on MS medium supplemented with chlorophenoxyacetic acid (CPA). Ten replicates, each with 10 explants placed in top down orientation, were maintained for each treatment. Explants were cultured under dark condition for the initial 5-6 weeks and then transferred to light (16 hr/day) for further shoot/planlet development. C=Mostly non-embroygenic callus was produced.
Table 20: Morphogenic response of leaf whorl explants (1.0-2.0 mm thick) of sugarcane cultivar Q165 after 8 weeks of culture on MS mediun supplemented with chlorophenoxyacefic acid (CPA). Ten replicates, each with 10 explants placed in top down orientation, were maintained for each treatment. All cultures received 16 hr light every day.
Table 21: Shoot regeneration in 1.0-2.0 mm thick leaf whorl explants of sugarcane cultivar Q165 after 8 weeks of culture on MS medium containing 6-benzyladenine (BA), α-naphthaleneacetic acid (NAA) and cholorophenoxyacetic acid (CPA). Ten replicates, each with 10 explants placed in top down orientation, were maintained for each treatment. All cultures received 16 hr light every day. […]

SMILES: O=C(Nc1ccccc1)Nc1cnns1 [thidiazuron]
- regeneration with other hormone combinations [1]: unsucessful

SMILES: c1coc(CNc2ncnc3[nH]cnc23)c1 [KIN, kinetin]
- effect on shoot regeneration ([1]; added after the initial embryo formation): enhanced
- optimal concentration of cytokinin for shoot regeneration [2]: 4 µM

SMILES: COc1c(Cl)ccc(Cl)c1C(=O)O [dicamba]
- regeneration with other hormone combinations [1]: unsucessful
- callus growth ([1]; sorghum cultures containing dicamba): some callus growth was seen

SMILES: O=C(O)Cc1cccc2ccccc12 [NAA, α-napthaleneacetic acid]
- optimal concentration of NAA for shoot regeneration [3]: 40 µM

SMILES: O=C(O)COc1ccc(Cl)cc1Cl [2,4-D14]
- Number of explants showing reg'n [4]: 0
- Percentage of explants regenerating [4]: 0%

SMILES: Nc1cc(Cl)cc(C(=O)O)c1Cl [AD, 3 amino-2,5-dichlorobenzoic acid]
- morphological abnormalities in the regenerated plants [5]: developed albinos occasionally

SMILES: Nc1c(Cl)c(Cl)nc(C(=O)O)c1Cl [picloram]
- regeneration with other hormone combinations [1]: unsucessful
